The subject of one data set is Artemia. In words: Toxicity in brine shrimp. It is filed as organism-based. The conditions noted are these: in vivo.
In the next data set the test system is A549. Kind of data set: Cytotoxicity against human A549 cells. The conditions noted are these: read-out: ED50 (the source's name). It is filed as functional.
Another data set relates to HCT-15. Kind of data set: Cytotoxicity against human HCT15 cells. The class given is functional. Particulars: read-out: ED50 (the source's name).
The test system of a further data set is SK-OV-3. Kind of data set: Cytotoxicity against human SKOV3 cells. The conditions noted are these: read-out: ED50 (the source's name). The class given is functional.
Another data set concerns SK-MEL-2. In words: Cytotoxicity against human SK-MEL-2 cells. The class given is functional. Particulars: read-out: ED50 (the source's name).

Molecules are shown by their SMILES. In brackets after ≈: the same amount, converted by molar mass.

In turn, `CC1=CC[C@H](C(C)C)[C@@H]2[C@H]1[C@@H]1C/C(C)=C/CC[C@@](C)(O)[C@H]2O1` came in with an LD50 in the data set on Artemia of 39.2 ppm. With `CC(=O)O[C@]1(C)CC/C=C(\C)C[C@@H]2O[C@H]1[C@H]1[C@@H]2C(C)=CC[C@@H]1C(C)C`, the EC50 in the data set on A549 turned out to be 12.7 µg/mL (≈ 36.7 µM); with HCT-15, 13.9 µg/mL (≈ 40.1 µM); with SK-OV-3, 21.3 µg/mL (≈ 61.5 µM); with SK-MEL-2, 11.6 µg/mL (≈ 33.5 µM). The molecule further had an LD50 in the data set on Artemia of 0.3 ppm. `CC1=C[C@@H](O)[C@H](C(C)(C)O)[C@@H]2[C@H]1[C@@H]1C/C(C)=C/CC[C@@](C)(O)[C@H]2O1` yielded an LD50 in the data set on Artemia of 48 ppm.

`C=C1C[C@@H]2O[C@@H]([C@H]3[C@@H]2C(C)=C[C@@H](OC(C)=O)[C@@H]3C(C)(C)OC(C)=O)[C@](C)(OC(C)=O)CC[C@@H]1OC(C)=O` [ASTROGORGIN] came in with an LD50 in the data set with Artemia of 1.8 ppm.

For the molecule `CC(=O)O[C@@H]1C=C(C)[C@H]2[C@@H]([C@H]1C(C)C)[C@@H]1O[C@H]2C/C(C)=C/CC[C@@]1(C)OC(C)=O` [CALICOPHIRIN B], the LD50 with Artemia is on record as 1 ppm. The same measure, in the same setting: next, `C=C1CC[C@H](C(C)C)[C@@H]2[C@H]1[C@@H]1C/C(C)=C/CC[C@@](C)(OC(C)=O)[C@H]2O1` [CLADIELLIN]: 1.3 ppm; `CC(=O)O[C@@H]1C=C(C)[C@H]2[C@@H]([C@H]1C(C)(C)OC(C)=O)[C@@H]1O[C@H]2C/C(C)=C/CC[C@@]1(C)OC(C)=O` [OPHIRIN]: 8.7 ppm.

The record behind these values is ChEMBL document CHEMBL1146392, “Isolation of Diterpenoids of the Cladiellane Class from Gorgonians of the Genus Muricella” (J Nat Prod, 1997).
